Reference: patent US10183021B2, “sGC stimulators” (Ironwood Pharmaceuticals, Inc., priority 2013, dated 2019)
Like-named read-outs stand apart in the source and are kept apart here.

Molecular target: soluble guanylate cyclase (sGC) (Homo sapiens (Human), UniProt Q02108+Q02153)
Test: sGC-HEK-cGMP assay with SNP incubation, LC/MS detection (Example 2A)
Format: cell-based
Settings: HEK293 cells, 10 μM SNP, LC/MS detection; for Emax: 100% = BAY 41-2272 at 10 μM, read-out: HEK assay Emax - unconstrained (%)
Method: Human embryonic kidney cells (HEK293), endogenously expressing soluble guanylate cyclase (sGC), were used to evaluate the activity of test compounds. Compounds stimulating the sGC receptor should cause an increase in the intracellular concentration of cGMP. HEK 293 cells were seeded in Dulbecco's Modification of Eagle's Medium supplemented with fetal bovine serum (10% final) and L-glutamine (2 mM final) in a 200 L volume at a density of 1×10^5 cells/well in a poly-D-lysine coated 96 well flat bottom plate and grown overnight at 37° C. Medium was aspirated and cells were washed with 1× Hank's Buffered Saline Salt Solution (200 μL). Cells were then incubated for 15 minutes at 37° C. with 200 μL of a 0.5 mM 3-isobutyl-1-methylxanthine (IBMX) solution. Test article and sodium nitroprusside solutions (x μM concentration for test article solution and 10 μM concentration for SNP solution; wherein x is one of the following concentrations: 30 μM, 10 μM, 3 μM, 1 μM, 0.3 μM, 0.1 μM, 0.03 μM, 0.01 μM, 0.003 μM, 0.001 μM, 0.0003 μM or 0.0001 μM) were then added to the assay mixture (2 μL each) and the resulting mixture incubated at 37° C. for 10 minutes. After the 10 minute incubation, the assay mixture was aspirated and 0.1M HCl (200 μL) was added to the cells. The plate was incubated at 4° C. for 30 minutes in the 0.1M HCl to stop the reaction and lyse the cells. The plates were then centrifuged at 1,200 g for 5 minutes at room temperature. Supernatants were collected and transferred to a new flat bottom 96 well plate for analysis by HPLC-MS. Vehicle controls were carried out using DMSO (1%) solutions. A known sGC stimulator, BAY 41-2272, was used as the positive control. Samples were diluted with an equal volume of 1 M Ammonium Acetate (pH 7) to neutralize samples for better chromatography. A 2× cGMP standard solution was prepared in 0.1 M HCl and then diluted with an equal volume of 1 M Ammonium Acetate, with the following final concentrations in nM: 1024, 512, 256, 128, 64, 32, 16, 8, 4, 2, 1. cGMP concentrations in the test plates were determined from each sample using the LC/MS conditions shown in Table 2 below and the calculated cGMP standard curve. EC50 values were calculated from concentration-response curves generated with GraphPad Prism Software. Data were normalized to a high control using the following equation: 100*(Sample−Low Control)/(High Control−Low Control), where the low control is the average of 6 samples treated with 1% DMSO, and the high control is the average of 8-12 samples treated with 10 uM BAY 41-2272. Data were fit using a non-linear regression, sigmoidal dose response, 3 parameter fits.

[1] = top of curve not fitted to 100%, read-out: HEK assay EC50 - unconstrained

Sequence of soluble guanylate cyclase (sGC) (Q02153 whole entry): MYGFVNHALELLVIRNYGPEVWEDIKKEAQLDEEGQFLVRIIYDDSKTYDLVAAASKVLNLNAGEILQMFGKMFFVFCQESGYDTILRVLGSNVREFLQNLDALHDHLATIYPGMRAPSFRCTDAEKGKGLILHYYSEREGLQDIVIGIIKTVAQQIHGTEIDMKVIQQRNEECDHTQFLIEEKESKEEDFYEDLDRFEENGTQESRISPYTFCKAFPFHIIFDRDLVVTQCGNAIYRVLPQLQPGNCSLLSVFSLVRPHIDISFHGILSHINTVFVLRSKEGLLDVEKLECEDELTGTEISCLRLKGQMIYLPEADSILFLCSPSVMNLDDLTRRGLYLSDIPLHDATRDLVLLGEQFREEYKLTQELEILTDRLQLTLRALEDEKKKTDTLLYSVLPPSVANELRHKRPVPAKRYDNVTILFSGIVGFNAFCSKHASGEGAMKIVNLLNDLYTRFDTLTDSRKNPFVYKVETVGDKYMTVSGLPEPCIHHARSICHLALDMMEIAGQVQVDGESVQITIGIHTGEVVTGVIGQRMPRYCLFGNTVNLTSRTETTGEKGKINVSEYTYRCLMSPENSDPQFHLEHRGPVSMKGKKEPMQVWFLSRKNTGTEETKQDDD
Sequence of soluble guanylate cyclase (sGC) (Q02108 whole entry): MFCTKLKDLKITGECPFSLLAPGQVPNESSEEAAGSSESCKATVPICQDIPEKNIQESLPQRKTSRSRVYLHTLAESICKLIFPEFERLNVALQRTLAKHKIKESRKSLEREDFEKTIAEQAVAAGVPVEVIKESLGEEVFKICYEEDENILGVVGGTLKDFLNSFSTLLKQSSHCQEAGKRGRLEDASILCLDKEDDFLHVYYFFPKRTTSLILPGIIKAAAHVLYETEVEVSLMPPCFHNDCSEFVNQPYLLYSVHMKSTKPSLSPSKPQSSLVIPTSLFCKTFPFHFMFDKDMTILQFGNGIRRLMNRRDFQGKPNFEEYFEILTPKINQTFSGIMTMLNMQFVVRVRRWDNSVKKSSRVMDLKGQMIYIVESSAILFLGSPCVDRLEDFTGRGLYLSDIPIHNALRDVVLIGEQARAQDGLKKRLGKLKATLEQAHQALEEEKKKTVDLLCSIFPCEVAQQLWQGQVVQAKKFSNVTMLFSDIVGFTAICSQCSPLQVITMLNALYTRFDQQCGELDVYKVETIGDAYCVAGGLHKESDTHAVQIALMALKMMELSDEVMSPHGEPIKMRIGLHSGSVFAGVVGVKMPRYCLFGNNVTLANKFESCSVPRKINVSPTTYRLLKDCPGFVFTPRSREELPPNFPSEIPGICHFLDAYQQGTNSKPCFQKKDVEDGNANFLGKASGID

SMILES | Emax | EC50 [1] | EC50 (top of curve fitted to 100%, read-out: HEK assay EC50 - constrained)
CN(C)CCNc1nc(-c2cc(-c3ccon3)n(Cc3ccccc3F)n2)ncc1F [Compound I-7] | 40 to 60% | 1000 to 5000 nM | –
CN(C)c1nc(-c2cc(-c3ccon3)n(Cc3ccccc3F)n2)ncc1F [Compound I-8] | 60 to 80% | 100 to 500 nM | –
Fc1ccccc1Cn1nc(-c2ncc(F)c(NC3CCCCC3)n2)cc1-c1ccon1 [Compound I-9] | 80 to 100% | 100 to 500 nM | –
CC(C)(C)OC(=O)N1CCC(Nc2nc(-c3cc(-c4ccon4)n(Cc4ccccc4F)n3)ncc2F)CC1 [Compound I-12] | 100 to 120% | 1000 to 5000 nM | –
OC[C@@H]1CCCN1c1nc(-c2cc(-c3ccon3)n(Cc3ccccc3F)n2)ncc1F [Compound I-13] | 60 to 80% | 100 to 500 nM | –
COC1CCN(c2nc(-c3cc(-c4ccon4)n(Cc4ccccc4F)n3)ncc2F)C1 (stereo not shown) [Compound I-17] | 60 to 80% | 100 to 500 nM | –
OC1CCCN(c2nc(-c3cc(-c4ccon4)n(Cc4ccccc4F)n3)ncc2F)C1 (stereo not shown) [Compound I-18] | 60 to 80% | – | –
OC1CCN(c2nc(-c3cc(-c4ccon4)n(Cc4ccccc4F)n3)ncc2F)C1 (stereo not shown) [Compound I-20] | 60 to 80% | 100 to 500 nM | –
CC(C)(C)OC(=O)NC1CN(c2nc(-c3cc(-c4ccon4)n(Cc4ccccc4F)n3)ncc2F)C1 [Compound I-21, tert-butyl (1-(5-fluoro-2-(1-(2-fluorobenzyl)-5-(isoxazol-3-yl)-1H-pyrazol-3-yl)pyrimidin-4-yl)azetidin-3-yl)carbamate] | 40 to 60% | 100 to 500 nM | –
COC1CCN(c2nc(-c3cc(-c4ccon4)n(Cc4ccccc4F)n3)ncc2F)CC1 [Compound I-22] | 60 to 80% | 100 to 500 nM | –
CC(C)(C)OC(=O)NC1CCCN(c2nc(-c3cc(-c4ccon4)n(Cc4ccccc4F)n3)ncc2F)C1 (stereo not shown) [Compound I-25] | 40 to 60% | 500 to 1000 nM | –
CC(C)(C)OC(=O)N1CC(Nc2nc(-c3cc(-c4ccon4)n(Cc4ccccc4F)n3)ncc2F)C1 [Compound I-26] | 60 to 80% | 100 to 500 nM | –
CC(C)(C)OC(=O)N1CCCC(Nc2nc(-c3cc(-c4ccon4)n(Cc4ccccc4F)n3)ncc2F)C1 (stereo not shown) [Compound I-27] | 60 to 80% | 500 to 1000 nM | –
Fc1ccccc1Cn1nc(-c2ncc(Cl)c(N3CCOCC3)n2)cc1-c1ccon1 [Compound I-28] | 60 to 80% | 1000 to 5000 nM | –
O=C1CC2(CCN(c3nc(-c4cc(-c5ccon5)n(Cc5ccccc5F)n4)ncc3F)CC2)CN1 [Compound I-30] | 80 to 100% | 100 to 500 nM | –
O=C(CNc1nc(-c2cc(-c3ccon3)n(Cc3ccccc3F)n2)ncc1F)N1CCOCC1 [Compound I-31] | 60 to 80% | 500 to 1000 nM | –
Fc1ccccc1Cn1nc(-c2ncc(F)c(N3CC4(COC4)C3)n2)cc1-c1ccon1 [Compound I-32] | 60 to 80% | 100 to 500 nM | –
CC1COCCN1c1nc(-c2cc(-c3ccon3)n(Cc3ccccc3F)n2)ncc1F (stereo not shown) [Compound I-33] | 60 to 80% | 100 to 500 nM | –
COC(=O)C1CCCN1c1nc(-c2cc(-c3ccon3)n(Cc3ccccc3F)n2)ncc1F (stereo not shown) [Compound I-34] | 40 to 60% | 500 to 1000 nM | –
NC1CCCN(c2nc(-c3cc(-c4ccon4)n(Cc4ccccc4F)n3)ncc2F)C1 (stereo not shown) [Compound I-37] | 60 to 80% | 1000 to 5000 nM | –
Fc1ccccc1Cn1nc(-c2ncc(F)c(NC3CNC3)n2)cc1-c1ccon1 [Compound I-38] | 60 to 80% | 5000 to 10000 nM | –
NC1CN(c2nc(-c3cc(-c4ccon4)n(Cc4ccccc4F)n3)ncc2F)C1 [Compound I-40, 1-(5-fluoro-2-(1-(2-fluorobenzyl)-5-(isoxazol-3-yl)-1H-pyrazol-3-yl)pyrimidin-4-yl)azetidin-3-amine] | 60 to 80% | 1000 to 5000 nM | –
O=C(O)C1CCCN1c1nc(-c2cc(-c3ccon3)n(Cc3ccccc3F)n2)ncc1F (stereo not shown) [Compound I-41] | 60 to 80% | – | –
Fc1ccccc1Cn1nc(-c2ncc(F)c(N3CCC4(CC3)COC4)n2)cc1-c1ccon1 [Compound I-42] | 80 to 100% | 100 to 500 nM | –
Fc1ccccc1Cn1nc(-c2ncc(F)c(N3CCC4(CCOCC4)C3)n2)cc1-c1ccon1 [Compound I-43] | 60 to 80% | 1 to 100 nM | –

SMILES | Emax | EC50 [1] | EC50 (top of curve fitted to 100%, read-out: HEK assay EC50 - constrained)
CC(C)(C)OC(=O)N1CCC2(CCN(c3nc(-c4cc(-c5ccon5)n(Cc5ccccc5F)n4)ncc3F)C2)C1 (stereo not shown) [Compound I-45] | 40 to 60% | 1000 to 5000 nM | –
NC1CCN(c2nc(-c3cc(-c4ccon4)n(Cc4ccccc4F)n3)ncc2F)C1 (stereo not shown) [Compound I-46] | 60 to 80% | 1000 to 5000 nM | –
Fc1ccccc1Cn1nc(-c2ncc(F)c(N3CCCC4(COC4)C3)n2)cc1-c1ccon1 [Compound I-47] | 40 to 60% | 100 to 500 nM | –
COC(=O)C1CCCCN1c1nc(-c2cc(-c3ccon3)n(Cc3ccccc3F)n2)ncc1F (stereo not shown) [Compound I-48] | 60 to 80% | 1000 to 5000 nM | –
COC(=O)N(C(=O)OC)c1nc(-c2cc(-c3ccon3)n(Cc3ccccc3F)n2)ncc1F [Compound I-52] | 60 to 80% | 1000 to 5000 nM | –
Fc1ccccc1Cn1nc(-c2ncc(F)c(N3CCCC(F)C3)n2)cc1-c1ccon1 (stereo not shown) [Compound I-56] | 80 to 100% | 100 to 500 nM | –
CCN(CC)c1nc(-c2cc(-c3ccon3)n(Cc3ccccc3F)n2)ncc1F [Compound I-60] | 100 to 120% | 500 to 1000 nM | –
Fc1ccccc1Cn1nc(-c2ncc(F)c(N3CC(F)(F)C3)n2)cc1-c1ccon1 [Compound I-61] | 80 to 100% | 500 to 1000 nM | –
Fc1ccccc1Cn1nc(-c2ncc(F)c(N3CCC(F)(F)C3)n2)cc1-c1ccon1 [Compound I-63] | 60 to 80% | 100 to 500 nM | –
CC1(Nc2nc(-c3cc(-c4ccon4)n(Cc4ccccc4F)n3)ncc2F)CCOCC1 [Compound I-64] | 80 to 100% | 1 to 100 nM | –
CC(C)(C)Nc1nc(-c2cc(-c3ccon3)n(Cc3ccccc3F)n2)ncc1F [Compound I-65] | 60 to 80% | 500 to 1000 nM | –
NC(=O)C1CCCN(c2nc(-c3cc(-c4ccon4)n(Cc4ccccc4F)n3)ncc2F)C1 (stereo not shown) [Compound I-66] | 60 to 80% | 100 to 500 nM | –
O=C(O)[C@H](CO)Nc1nc(-c2cc(-c3ccon3)n(Cc3ccccc3F)n2)ncc1F [Compound I-68] | 60 to 80% | 5000 to 10000 nM | –
CCNC(=O)NC1CCCN(c2nc(-c3cc(-c4ccon4)n(Cc4ccccc4F)n3)ncc2F)C1 (stereo not shown) [Compound I-70] | 80 to 100% | 100 to 500 nM | –
CCNC(=O)NC1CN(c2nc(-c3cc(-c4ccon4)n(Cc4ccccc4F)n3)ncc2F)C1 [Compound I-71] | 60 to 80% | 100 to 500 nM | –
O=S1(=O)CCN(C2CN(c3nc(-c4cc(-c5ccon5)n(Cc5ccccc5F)n4)ncc3F)C2)CC1 [Compound I-72] | 60 to 80% | 100 to 500 nM | –
COc1cnc(-c2cc(-c3ccon3)n(Cc3ccccc3F)n2)nc1N1CCOCC1 [Compound I-73] | 40 to 60% | 5000 to 10000 nM | –
Fc1ccccc1Cn1nc(-c2ncc(F)c(-n3cccn3)n2)cc1-c1ccon1 [Compound I-74] | 40 to 60% | 1000 to 5000 nM | –
O=C(O)C1CCCCCN1c1nc(-c2cc(-c3ccon3)n(Cc3ccccc3F)n2)ncc1F (stereo not shown) [Compound I-75] | 60 to 80% | 100 to 500 nM | –
O=C(O)C1CCN(c2nc(-c3cc(-c4ccon4)n(Cc4ccccc4F)n3)ncc2F)C1 (stereo not shown) [Compound I-76] | 60 to 80% | 500 to 1000 nM | –
O=C(O)[C@H](Cc1ccccc1)Nc1nc(-c2cc(-c3ccon3)n(Cc3ccccc3F)n2)ncc1F [Compound I-80] | 80 to 100% | 500 to 1000 nM | –
OCC1C[C@H]2CC[C@@H](C1)N2c1nc(-c2cc(-c3ccon3)n(Cc3ccccc3F)n2)ncc1F (stereo partly shown) [Compound I-82] | 60 to 80% | 100 to 500 nM | –
O=C(O)C1CN(c2nc(-c3cc(-c4ccon4)n(Cc4ccccc4F)n3)ncc2F)CCO1 (stereo not shown) [Compound I-83] | – | – | > 10000 nM
CC(C)[C@@H](Nc1nc(-c2cc(-c3ccon3)n(Cc3ccccc3F)n2)ncc1F)C(=O)O [Compound I-86] | 80 to 100% | 100 to 500 nM | –
O=C(O)[C@H]1Cc2ccccc2N1c1nc(-c2cc(-c3ccon3)n(Cc3ccccc3F)n2)ncc1F [Compound I-91] | 40 to 60% | 5000 to 10000 nM | –
